In patent US20050048020A1, “Novel topical delivery system for plant derived anti-irritants” (priority 2003, published 2005):

Columns and labels:
[1] = Photobleaching of lycopenes in mineral oil; assay type: physicochemical; conditions: 0.1% in Mineral Oil, visible light and oxygen, FIG. 1
From the text: FIG. 1A is a graph illustrating the effects of photobleaching of lycopenes dissolved in mineral oil, over time.
The principal plant actives under development are the hydrophobic plant actives derived from carrot extracts (carotenes) and tomato paste (lycopenes). Both actives are known anti-cancer agents and regulators of epithelial homeostasis. Their role in epidermopoeisis and skin care is still under investigation. For both materials, extracts have been prepared and enriched by sequential extraction with ethyl alcohol and organic solvents. These extracts are then dried to a powder form and solubilized in Mineral Oil. A clear necessity for the preparation of such formulations is to prevent the photo-bleaching that occurs in mineral oil solutions exposed to visible light and oxygen This may typically be accomplished by addition of mineral oil solutions of Vitamin E (0.1%). […] Similar results have been obtained with the addition of Vitamin E to prevent the photo-bleaching of carotenes derived from Carrot Extracts.

[2] = DPPH* radical antioxidant test of plant extracts; assay type: biochemical; conditions: DPPH* assay, reference; read-out: EC50 of Vitamin E

effect on photo-bleaching of lycopenes [1]: photo-protective effect
Substance: Tocopherol [Vitamin E]
EC50 [2]: 46 µM
